# Experimental data from the supplement of paper PMC10307832.
# Compound: O=C1NC(=O)[C@@H](c2cn3c4c(cccc24)CCC3)[C@@H]1c1c[nH]c2ccccc12 [Tivantinib] + Cc1nc(Nc2ncc(C(=O)Nc3c(C)cccc3Cl)s2)cc(N2CCN(CCO)CC2)n1 [Dasatinib] (partner 0.075 µM)
# Assay: relative viability (nuclei count vs DMSO), 5 days (fraction); higher = more cells survive
# Settings: first compound 0.01 µM
# Outline: (§1)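 Cells from lung cancer lines were seeded into 1536-well plates and, one day later, dosed by pin tool. Treatments were either a single drug or a fixed dose of an anchor drug with five library-drug doses (not always all listed) in √10 steps. After 5 days, nuclei were stained in a one-step fixation (final 0.05% Triton X-100, 1% formaldehyde, 1 ug/ml Hoechst) and counted on 4× images, and relative viability is the treated-to-vehicle nuclei ratio, as the median of duplicate plates.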
row,Cell Line,relative viability
1,HCC-827,0.237
2,NCI-H441,0.801
3,LOU-NH91,0.586
4,NCI-H2023,0.678
5,A-427,0.677
6,NCI-H460,0.461
7,NCI-H1755,0.482
8,NCI-H520,0.204
9,NCI-H2405,0.213
10,SW 1573,0.717
11,201T,0.562
12,NCI-H1975,0.357
13,HOP-62,0.711
14,NCI-H2347,0.345
15,NCI-H1355,0.666
16,NCI-H650,0.504
17,CAL-12T,0.479

row,Cell Line,relative viability
1,NCI-H1666,0.765
2,H3255,0.35
3,NCI-H23,0.876
4,NCI-H1915,0.305
5,NCI-H1437,0.427
6,NCI-H322M,0.25
7,NCI-H2085,0.331
8,HCC-366,0.629
9,PC-3 [JPC-3],0.962
10,EKVX,0.615
11,LCLC-103H,0.424
12,NCI-H1650,0.41
13,NCI-H1993,0.649
14,SK-LU-1,0.186
15,NCI-H661,0.884
16,RERF-LC-KJ,0.873

# Same assay, conditions: first compound 0.03162 µM
row,Cell Line,relative viability
1,HCC-827,0.295
2,NCI-H441,0.555
3,LOU-NH91,0.565
4,NCI-H2023,0.564
5,A-427,0.731
6,NCI-H460,0.35
7,NCI-H1755,0.437
8,NCI-H520,0.185
9,NCI-H2405,0.213
10,SW 1573,0.481
11,201T,0.566
12,NCI-H1975,0.372
13,HOP-62,0.521
14,NCI-H2347,0.267
15,NCI-H1355,0.668
16,NCI-H650,0.359
17,CAL-12T,0.499

row,Cell Line,relative viability
1,NCI-H1666,0.785
2,H3255,0.38
3,NCI-H23,0.809
4,NCI-H1915,0.277
5,NCI-H1437,0.334
6,NCI-H322M,0.234
7,NCI-H2085,0.244
8,HCC-366,0.594
9,PC-3 [JPC-3],1.02
10,EKVX,0.431
11,LCLC-103H,0.428
12,NCI-H1650,0.289
13,NCI-H1993,0.7
14,SK-LU-1,0.178
15,NCI-H661,0.869
16,RERF-LC-KJ,0.895

# Same assay, conditions: first compound 0.1 µM
row,Cell Line,relative viability
1,HCC-827,0.375
2,NCI-H441,0.356
3,LOU-NH91,0.568
4,NCI-H2023,0.506
5,A-427,0.712
6,NCI-H460,0.484
7,NCI-H1755,0.401
8,NCI-H520,0.193
9,NCI-H2405,0.218
10,SW 1573,0.453
11,201T,0.547
12,NCI-H1975,0.276
13,HOP-62,0.606
14,NCI-H2347,0.283
15,NCI-H1355,0.675
16,NCI-H650,0.461
17,CAL-12T,0.403

row,Cell Line,relative viability
1,NCI-H1666,0.77
2,H3255,0.361
3,NCI-H23,0.699
4,NCI-H1915,0.294
5,NCI-H1437,0.429
6,NCI-H322M,0.273
7,NCI-H2085,0.239
8,HCC-366,0.495
9,PC-3 [JPC-3],0.988
10,EKVX,0.618
11,LCLC-103H,0.429
12,NCI-H1650,0.276
13,NCI-H1993,1.35
14,SK-LU-1,0.173
15,NCI-H661,0.736
16,RERF-LC-KJ,0.757

# Same assay, conditions: first compound 0.3162 µM
row,Cell Line,relative viability
1,HCC-827,0.131
2,NCI-H441,0.433
3,LOU-NH91,0.464
4,NCI-H2023,0.521
5,A-427,0.686
6,NCI-H460,0.492
7,NCI-H1755,0.39
8,NCI-H520,0.221
9,NCI-H2405,0.169
10,SW 1573,0.548
11,201T,0.554
12,NCI-H1975,0.281
13,HOP-62,0.739
14,NCI-H2347,0.306
15,NCI-H1355,0.564
16,NCI-H650,0.527

row,Cell Line,relative viability
1,CAL-12T,0.238
2,NCI-H1666,0.742
3,NCI-H23,0.782
4,NCI-H1915,0.334
5,NCI-H1437,0.376
6,NCI-H2085,0.209
7,HCC-366,0.681
8,PC-3 [JPC-3],0.585
9,EKVX,0.315
10,LCLC-103H,0.436
11,NCI-H1650,0.313
12,NCI-H1993,0.583
13,SK-LU-1,0.169
14,NCI-H661,0.4
15,RERF-LC-KJ,0.585

# Compound: CC1(COc2ccc3c(c2)ncn3-c2ccc3cccc(N4CCC(N)CC4)c3n2)COC1 [Crenolanib] + Nc1nc2[nH]cc(CCc3ccc(C(=O)N[C@@H](CCC(=O)O)C(=O)O)cc3)c2c(=O)[nH]1 [Pemetrexed] (partner 0.2 µM)
# Assay: as above
# Settings: first compound 0.01 µM
# Outline: as §1
row,Cell Line,relative viability
1,HCC-827,0.256
2,NCI-H441,0.261
3,LOU-NH91,0.399
4,NCI-H2023,0.206
5,A-427,1.01
6,NCI-H460,0.063
